Results as given in PubChem BioAssay (NCI).
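Interpolation was linear, between the two tested concentrations surrounding the appropriate level; five concentrations were tested over 48 hours in 96-well plates. At the GI50, growth is halved. TGI: concentration producing complete growth inhibition.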

Key:
Assay in all cases: NCI tumour cell line growth inhibition, 48 h
MOLT-4 leukemia = test system: MOLT-4 leukemia
KM12 colon = test system: KM12 colon
M14 melanoma = test system: M14 melanoma
SK-MEL-5 melanoma = test system: SK-MEL-5 melanoma
HOP-92 NSCLC = test system: HOP-92 NSCLC
786-0 renal = test system: 786-0 renal
HCT-116 colon = test system: HCT-116 colon
DU-145 prostate = test system: DU-145 prostate
SN12C renal = test system: SN12C renal
SK-MEL-2 melanoma = test system: SK-MEL-2 melanoma
A498 renal = test system: A498 renal
CAKI-1 renal = test system: CAKI-1 renal
SW-620 colon = test system: SW-620 colon
LOX IMVI melanoma = test system: LOX IMVI melanoma
NCI-H23 lung = test system: NCI-H23 lung
ACHN renal = test system: ACHN renal
OVCAR-4 ovarian = test system: OVCAR-4 ovarian
RPMI-8226 leukemia = test system: RPMI-8226 leukemia
HCC-2998 colon = test system: HCC-2998 colon
NCI/ADR-RES ovarian = test system: NCI/ADR-RES ovarian
CCRF-CEM leukemia = test system: CCRF-CEM leukemia
RXF 393 renal = test system: RXF 393 renal
SK-OV-3 ovarian = test system: SK-OV-3 ovarian
OVCAR-5 ovarian = test system: OVCAR-5 ovarian
SF-295 CNS = test system: SF-295 CNS
U251 CNS = test system: U251 CNS
HS 578T breast = test system: HS 578T breast
MCF7 breast = test system: MCF7 breast
UACC-62 melanoma = test system: UACC-62 melanoma
MALME-3M melanoma = test system: MALME-3M melanoma
HCT-15 colon = test system: HCT-15 colon
MDA-MB-435 = test system: MDA-MB-435
SNB-19 CNS = test system: SNB-19 CNS
UO-31 renal = test system: UO-31 renal
SNB-75 CNS = test system: SNB-75 CNS
SF-268 CNS = test system: SF-268 CNS
PC-3 prostate = test system: PC-3 prostate
HOP-62 NSCLC = test system: HOP-62 NSCLC
IGROV1 ovarian = test system: IGROV1 ovarian
K-562 leukemia = test system: K-562 leukemia
EKVX NSCLC = test system: EKVX NSCLC
TK-10 renal = test system: TK-10 renal
A549 NSCLC = test system: A549 NSCLC
SK-MEL-28 melanoma = test system: SK-MEL-28 melanoma
NCI-H522 lung = test system: NCI-H522 lung
SF-539 CNS = test system: SF-539 CNS
UACC-257 melanoma = test system: UACC-257 melanoma
HT29 colon = test system: HT29 colon
NCI-H226 lung = test system: NCI-H226 lung
SR leukemia = test system: SR leukemia
OVCAR-8 ovarian = test system: OVCAR-8 ovarian
COLO 205 colon = test system: COLO 205 colon
NCI-H460 lung = test system: NCI-H460 lung
MDA-MB-231 breast = test system: MDA-MB-231 breast

`NC(N)=Nc1ccc(Oc2cccc(NC(N)=Nc3ccc(Cl)c(C(F)(F)F)c3)c2)cn1` was tested, and the GI50 (MOLT-4 leukemia) was 2.16 µM, the TGI (MOLT-4 leukemia) was 8.08 µM and the GI50 (KM12 colon) was 1.47 µM. The TGI (KM12 colon) was 2.9 µM, the GI50 (M14 melanoma) was 3.22 µM and the TGI (M14 melanoma) was 19.3 µM. The GI50 (SK-MEL-5 melanoma) was 2.53 µM, the TGI (SK-MEL-5 melanoma) was 6.94 µM and the GI50 (HOP-92 NSCLC) was 1.16 µM. For the same compound, the TGI (HOP-92 NSCLC) was 3.43 µM, the GI50 (786-0 renal) was 4.83 µM and the TGI (786-0 renal) was 24.8 µM. For the same compound, the GI50 (HCT-116 colon) was 1.73 µM, the TGI (HCT-116 colon) was 4.86 µM and the GI50 (DU-145 prostate) was 2.22 µM. For the same compound, the TGI (DU-145 prostate) was 5.27 µM, the GI50 (SN12C renal) was 2.2 µM and the TGI (SN12C renal) was 8.97 µM. For the same compound, the GI50 (SK-MEL-2 melanoma) was 1.78 µM, the TGI (SK-MEL-2 melanoma) was 3.37 µM and the GI50 (A498 renal) was 1.69 µM. The TGI (A498 renal) was 6.24 µM, the GI50 (CAKI-1 renal) was 3.29 µM and the TGI (CAKI-1 renal) was 17.4 µM. It also gave a GI50 (SW-620 colon) of 1.94 µM, a TGI (SW-620 colon) of 4.83 µM and a GI50 (LOX IMVI melanoma) of 1.4 µM. For the same compound, the TGI (LOX IMVI melanoma) was 2.74 µM, the GI50 (NCI-H23 lung) was 1.73 µM and the TGI (NCI-H23 lung) was 4.15 µM. It also gave a GI50 (ACHN renal) of 13.3 µM, a TGI (ACHN renal) of 29.4 µM and a GI50 (OVCAR-4 ovarian) of 2.53 µM. It also gave a TGI (OVCAR-4 ovarian) of 9.36 µM, a GI50 (RPMI-8226 leukemia) of 1.56 µM and a TGI (RPMI-8226 leukemia) of 4 µM. It also gave a GI50 (HCC-2998 colon) of 1.67 µM, a TGI (HCC-2998 colon) of 3.37 µM and a GI50 (NCI/ADR-RES ovarian) of 40.5 µM. It also gave a TGI (NCI/ADR-RES ovarian) of over 100 µM, a GI50 (CCRF-CEM leukemia) of 2.27 µM and a TGI (CCRF-CEM leukemia) of 10.3 µM. The GI50 (RXF 393 renal) was 1.83 µM, the TGI (RXF 393 renal) was 4.78 µM and the GI50 (SK-OV-3 ovarian) was 2.7 µM. For the same compound, the TGI (SK-OV-3 ovarian) was 10.4 µM, the GI50 (OVCAR-5 ovarian) was 1.89 µM and the TGI (OVCAR-5 ovarian) was 5.73 µM. The GI50 (SF-295 CNS) was 2.08 µM, the TGI (SF-295 CNS) was 7.97 µM and the GI50 (U251 CNS) was 1.26 µM. It also gave a TGI (U251 CNS) of 2.83 µM, a GI50 (HS 578T breast) of 1.78 µM and a TGI (HS 578T breast) of 4.63 µM. The GI50 (MCF7 breast) was 1.24 µM, the TGI (MCF7 breast) was 3.01 µM and the GI50 (UACC-62 melanoma) was 2.38 µM. For the same compound, the TGI (UACC-62 melanoma) was 12.7 µM, the GI50 (MALME-3M melanoma) was 2.3 µM and the TGI (MALME-3M melanoma) was 7.91 µM. The GI50 (HCT-15 colon) was 19.6 µM, the TGI (HCT-15 colon) was 67.6 µM and the GI50 (MDA-MB-435) was 1.66 µM. It also gave a TGI (MDA-MB-435) of 3.66 µM, a GI50 (SNB-19 CNS) of 1.28 µM and a TGI (SNB-19 CNS) of 2.68 µM. For the same compound, the GI50 (UO-31 renal) was 12.9 µM, the TGI (UO-31 renal) was 29.6 µM and the GI50 (SNB-75 CNS) was 0.515 µM. The TGI (SNB-75 CNS) was 2.92 µM, the GI50 (SF-268 CNS) was 1.09 µM and the TGI (SF-268 CNS) was 2.54 µM. The GI50 (PC-3 prostate) was 1.07 µM, the TGI (PC-3 prostate) was 2.62 µM and the GI50 (HOP-62 NSCLC) was 2.05 µM. For the same compound, the TGI (HOP-62 NSCLC) was 5.76 µM, the GI50 (IGROV1 ovarian) was 1.07 µM and the TGI (IGROV1 ovarian) was 2.51 µM. For the same compound, the GI50 (K-562 leukemia) was 1.51 µM, the TGI (K-562 leukemia) was 10.6 µM and the GI50 (EKVX NSCLC) was 2.77 µM. The TGI (EKVX NSCLC) was 13.5 µM, the GI50 (TK-10 renal) was 4.35 µM and the TGI (TK-10 renal) was 21.7 µM. It also gave a GI50 (A549 NSCLC) of 1.91 µM, a TGI (A549 NSCLC) of 17.4 µM and a GI50 (SK-MEL-28 melanoma) of 2.04 µM. It also gave a TGI (SK-MEL-28 melanoma) of 5.92 µM, a GI50 (NCI-H522 lung) of 2.19 µM and a TGI (NCI-H522 lung) of 5.81 µM. For the same compound, the GI50 (SF-539 CNS) was 1.54 µM, the TGI (SF-539 CNS) was 3.01 µM and the GI50 (UACC-257 melanoma) was 2.87 µM. It also gave a TGI (UACC-257 melanoma) of 12.8 µM, a GI50 (HT29 colon) of 1.91 µM and a TGI (HT29 colon) of 5.64 µM. The GI50 (NCI-H226 lung) was 2.18 µM, the TGI (NCI-H226 lung) was 6.25 µM and the GI50 (SR leukemia) was 1.42 µM. The TGI (SR leukemia) was 3.76 µM, the GI50 (OVCAR-8 ovarian) was 3.3 µM and the TGI (OVCAR-8 ovarian) was 18.7 µM. The GI50 (COLO 205 colon) was 1.43 µM, the TGI (COLO 205 colon) was 3.08 µM and the GI50 (NCI-H460 lung) was 1.48 µM. The TGI (NCI-H460 lung) was 3.6 µM, the GI50 (MDA-MB-231 breast) was 1.99 µM and the TGI (MDA-MB-231 breast) was 5.23 µM.
